{
  "source": "patent US12077503B2",
  "about": "“Substituted cyclic amides and their use as herbicides” (FMC CORPORATION, priority 2015, dated 2024)",
  "format_in_all_cases": "in vivo",
  "key": {"[1]": {"system": "Galium (catchweed bedstraw, Galium aparine)", "assay": "Test A postemergence", "settings": "postemergence, 0 to 100 scale (0 no effect, 100 complete control)", "outline": "(§1)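 Seeded soil received test chemicals as a preemergence directed spray, and seedlings at one to two leaves, 2–10 cm tall, received them postemergence, in a non-phytotoxic, surfactant-containing solvent mixture. Pots were held in a greenhouse for approximately 10 d, then rated for injury from 0, no effect, to 100, complete control.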"}, "[2]": {"system": "barnyardgrass (Echinochloa crus-galli)", "assay": "Test A postemergence", "settings": "postemergence, 0 to 100 scale (0 no effect, 100 complete control)", "outline": "as §1"}, "[3]": {"system": "ryegrass, Italian (Italian ryegrass, Lolium multiflorum)", "assay": "Test A postemergence", "settings": "postemergence, 0 to 100 scale (0 no effect, 100 complete control)", "outline": "as §1"}, "corn (Zea mays)": {"system": "corn (Zea mays)", "assay": "Test A postemergence", "settings": "postemergence, 0 to 100 scale (0 no effect, 100 complete control)", "outline": "as §1"}, "[4]": {"system": "ragweed (common ragweed, Ambrosia elatior)", "assay": "Test A postemergence", "settings": "postemergence, 0 to 100 scale (0 no effect, 100 complete control)", "outline": "as §1"}, "[5]": {"system": "wheat (Triticum aestivum)", "assay": "Test A postemergence", "settings": "postemergence, 0 to 100 scale (0 no effect, 100 complete control)", "outline": "as §1"}, "Kochia (Kochia scoparia) [6]": {"system": "Kochia (Kochia scoparia)", "assay": "Test A postemergence", "settings": "postemergence, 0 to 100 scale (0 no effect, 100 complete control)", "outline": "as §1"}, "[7]": {"system": "giant foxtail (Setaria faberii)", "assay": "Test A postemergence", "settings": "postemergence, 0 to 100 scale (0 no effect, 100 complete control)", "outline": "as §1"}, "[8]": {"system": "blackgrass (Alopecurus myosuroides)", "assay": "Test A postemergence", "settings": "postemergence, 0 to 100 scale (0 no effect, 100 complete control)", "outline": "as §1"}, "[9]": {"system": "pigweed (Amaranthus retroflexus)", "assay": "Test A postemergence", "settings": "postemergence, 0 to 100 scale (0 no effect, 100 complete control)", "outline": "as §1"}, "[10]": {"system": "barnyardgrass (Echinochloa crus-galli)", "assay": "Test A preemergence", "outline": "as §1"}, "[11]": {"system": "ryegrass, Italian (Italian ryegrass, Lolium multiflorum)", "assay": "Test A preemergence", "settings": "preemergence", "outline": "as §1"}, "[12]": {"system": "ragweed (common ragweed, Ambrosia elatior)", "assay": "Test A preemergence", "settings": "preemergence", "outline": "as §1"}, "Kochia (Kochia scoparia) [13]": {"system": "Kochia (Kochia scoparia)", "assay": "Test A preemergence", "outline": "as §1"}, "[14]": {"system": "giant foxtail (Setaria faberii)", "assay": "Test A preemergence", "outline": "as §1"}, "[15]": {"system": "pigweed (Amaranthus retroflexus)", "assay": "Test A preemergence", "settings": "preemergence"}, "[16]": {"system": "barnyardgrass (Echinochloa crus-galli)", "assay": "Test B flooded paddy test", "settings": "Flood, 500 g ai/ha; 0 to 100 scale where 0 is no effect and 100 is complete control; 13 to 15 d", "outline": "(§2)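 Plants at 2-leaf stage flooded to 3 cm above soil, with compounds applied directly to paddy water and that depth maintained. Plants kept in greenhouse 13–15 d. Visual rating versus controls on a 0 (no effect) to 100 (complete control) scale.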"}, "[17]": {"system": "ducksalad (Heteranthera limosa)", "assay": "Test B flooded paddy test", "settings": "Flood, 500 g ai/ha; 0 to 100 scale where 0 is no effect and 100 is complete control; 13 to 15 d", "outline": "as §2"}, "rice (Oryra sativa)": {"system": "rice (Oryra sativa)", "assay": "Test B flooded paddy test", "settings": "Flood, 500 g ai/ha; 0 to 100 scale where 0 is no effect and 100 is complete control; 13 to 15 d", "outline": "as §2"}, "[18]": {"system": "sedge, umbrella (small-flower umbrella sedge, Cyperus difformis)", "assay": "Test B flooded paddy test", "settings": "Flood, 500 g ai/ha; 0 to 100 scale where 0 is no effect and 100 is complete control; 13 to 15 d", "outline": "as §2"}, "[19]": {"system": "johnsongrass (Sorghum halepense)", "assay": "Test C preemergence", "settings": "for Plant response rating, Johnsongrass: scale 0 to 100, 0 no effect, 100 complete control", "from_the_text": "Seeds of plant species selected from blackgrass (Alopecurus myosuroides), ryegrass, Italian (Italian ryegrass, Lolium multiflorum), wheat (winter wheat, Triticum aestivum), Galium (catchweed bedstraw, Galium aparine), corn (Zea mays), crabgrass, large (large crabgrass, Digitaria sanguinalis), foxtail, giant (giant foxtail, Setaria faberii), johnsongrass (Sorghum halepense), lambsquarters (Chenopodium album), morningglory (Ipomoea coccinea), nutsedge, yellow (yellow nutsedge, Cyperus esculentus), pigweed (Amaranthus retroflexus), ragweed (common ragweed, Ambrosia elatior), soybean (Glycine max), barnyardgrass (Echinochloa crus-galli), oilseed rape (Brassica napus), waterhemp (common waterhemp, Amaranthus rudis) and velvetleaf (Abutilon theophrasti) were planted into a blend of loam soil and sand and treated preemergence with test chemicals formulated in a non-phytotoxic solvent mixture which included a surfactant.\nAt the same time, plants selected from these crop and weed species and also Kochia (Kochia scoparia), oat, wild (wild oat, Avena fatua), and chickweed (common chickweed, Stellaria media) were planted in pots containing Sunshine Redi-Earth® planting medium comprising spaghnum peat moss, vermiculite, starter nutrients and dolomitic limestone and treated with postemergence applications of test chemicals formulated in the same manner. Plants ranged in height from 2 to 18 cm (1- to 4-leaf stage) for postemergence treatments. Treated plants and controls were maintained in a greenhouse for 13 to 15 d, after which time all species were compared to controls and visually evaluated. Plant response ratings, summarized in Table C, are based on a scale of 0 to 100 where 0 is no effect and 100 is complete control. A dash (-) response means no test result."}, "[20]": {"settings": "125 g ai/ha, visual injury after approximately 10 d"}, "[21]": {"settings": "500 g ai/ha, visual injury, approx. 10 d"}, "[22]": {"settings": "125 g ai/ha, visual rating after approx. 10 d"}, "[23]": {"settings": "125 g ai/ha, Preemergence, visual injury after approximately 10 d, 0 to 100 scale where 0 is no effect and 100 is complete control"}, "[24]": {"settings": "500 g ai/ha, preemergence, 0 to 100 scale, 0 = no effect, 100 = complete control"}, "[25]": {"settings": "125 g ai/ha, visual rating after approx. 10 d, 0 to 100 scale where 0 is no effect and 100 is complete control"}, "[26]": {"settings": "500 g ai/ha, 0 to 100 scale, 0 = no effect, 100 = complete control"}},
  "data": [
    {"smiles": "O=C1NCC(c2cccc(OC(F)(F)C(F)F)c2)C1C(=O)Nc1ccccc1F", "note": "(racemic) [Compound 695]", "values": [
      {"measurement": "Plant response rating, Galium", "setting": "[1]; [20]", "value": 50},
      {"measurement": "Plant response rating, Galium", "setting": "[1]; [21]", "value": 40},
      {"measurement": "Plant response rating, Barnyardgrass", "setting": "[2]; [22]", "value": 80},
      {"measurement": "Plant response rating, Barnyardgrass", "setting": "[2]; [21]", "value": 90},
      {"measurement": "Plant response rating, Ryegrass, Italian", "setting": "[3]; [20]", "value": 0},
      {"measurement": "Plant response rating, Ryegrass, Italian", "setting": "[3]; [21]", "value": 20},
      {"measurement": "Plant response rating, Corn", "setting": "corn (Zea mays); [20]", "value": 80},
      {"measurement": "Plant response rating, Corn", "setting": "corn (Zea mays); [21]", "value": 80},
      {"measurement": "Plant response rating, Ragweed", "setting": "[4]; [20]", "value": 20},
      {"measurement": "Plant response rating, Ragweed", "setting": "[4]; [21]", "value": 40},
      {"measurement": "Plant response rating, Wheat", "setting": "[5]; [20]", "value": 20},
      {"measurement": "Plant response rating, Wheat", "setting": "[5]; [21]", "value": 40},
      {"measurement": "Plant response rating, Kochia", "setting": "Kochia (Kochia scoparia) [6]; [20]", "value": 30},
      {"measurement": "Plant response rating, Kochia", "setting": "Kochia (Kochia scoparia) [6]; [21]", "value": 50},
      {"measurement": "Plant response rating, Foxtail, Giant", "setting": "[7]; [20]", "value": 80},
      {"measurement": "Plant response rating, Foxtail, Giant", "setting": "[7]; [21]", "value": 80},
      {"measurement": "Plant response rating, Blackgrass", "setting": "[8]; [22]", "value": 0},
      {"measurement": "Plant response rating, Blackgrass", "setting": "[8]; [21]", "value": 40},
      {"measurement": "Plant response rating, Pigweed", "setting": "[9]; [20]", "value": 20},
      {"measurement": "Plant response rating, Pigweed", "setting": "[9]; [21]", "value": 30},
      {"measurement": "Plant response rating, Barnyardgrass", "setting": "[10]; [23]", "value": 90},
      {"measurement": "Plant response rating, Barnyardgrass", "setting": "[10]; [24]", "value": 90},
      {"measurement": "Plant response rating, Ryegrass, Italian", "setting": "[11]; [25]", "value": 40},
      {"measurement": "Plant response rating, Ryegrass, Italian", "setting": "[11]; [26]", "value": 30},
      {"measurement": "Plant response rating, Ragweed", "setting": "[12]; [25]", "value": 20},
      {"measurement": "Plant response rating, Ragweed", "setting": "[12]; [26]", "value": 40},
      {"measurement": "Plant response rating, Kochia", "setting": "Kochia (Kochia scoparia) [13]; [23]", "value": 30},
      {"measurement": "Plant response rating, Kochia", "setting": "Kochia (Kochia scoparia) [13]; [24]", "value": 90},
      {"measurement": "Plant response rating, Foxtail, Giant", "setting": "[14]; [23]", "value": 90},
      {"measurement": "Plant response rating, Foxtail, Giant", "setting": "[14]; [24]", "value": 90},
      {"measurement": "Plant response rating, Pigweed", "setting": "[15]; [25]", "value": 30},
      {"measurement": "Plant response rating, Pigweed", "setting": "[15]; [26]", "value": 40},
      {"measurement": "Plant response rating, Barnyardgrass", "setting": "[16]", "value": 80},
      {"measurement": "Plant response rating, Ducksalad", "setting": "[17]", "value": 100},
      {"measurement": "Plant response rating, Rice", "setting": "rice (Oryra sativa)", "value": 0},
      {"measurement": "Plant response rating, Sedge, Umbrella", "setting": "[18]", "value": 0},
      {"measurement": "Plant response rating (scale of 0 to 100), Johnsongrass", "setting": "[19]; 31 g ai/ha, 0 is no effect, 100 is complete control", "value": 40},
      {"measurement": "Plant response rating, Johnsongrass", "setting": "[19]; 62 g ai/ha", "value": 80},
      {"measurement": "Plant response rating, Johnsongrass", "setting": "[19]; 125 g ai/ha", "value": 80},
      {"measurement": "Plant response rating, Johnsongrass", "setting": "[19]; 250 g ai/ha", "value": 85}
    ]}
  ]
}
